Patent publication US20170267708A1, “C-4" POSITION SUBSTITUTED MACROLIDE DERIVATIVE” (priority 2014, published 2017)
Converted amounts (≈) assume the structure as drawn. Like-named read-outs stand apart in the source and are kept apart here.

Legend:
[1] = tested on: 39 kinds of clinically isolated strains of Hemophilus influenzae; assay: Hemophilus influenzae susceptibility test; assay type: cell-based; settings: 39 clinically isolated strains
Description: (§1) In vitro antibacterial activities of the compound of the present invention, the compound represented by the formula [1] of Example 1, against various test bacteria were measured according to the microbroth dilution method (CLSI method). The activities of the compound of Reference Example 4 represented by the formula [3] was similarly measured. The MIC values (minimum inhibitory concentration, μg/ml) for the test bacteria of the bacterium symbols A, B, C, D, E, F, G, H, I, J, K, and L are shown in Table 2.
Drug susceptibility of 39 kinds of clinically isolated strains of Hemophilus influenzae was evaluated in the same manner as that of Test Example 1.

[2] = tested on: Haemophilus influenzae ATCC 43095 strain; assay: Therapeutic effectiveness in Haemophilus influenzae-infected animals; assay type: in vivo, mice; settings: for number of living cells in the lung: ICR mice, 3 days after inoculation, average±standard error
Description: As a bacterium, the Haemophilus influenzae ATCC 43095 strain (bacterium symbol A) was used. Cells of the bacterium cultured overnight on a chocolate agar medium were collected, suspended in a Hemophilus susceptibility test medium or the brain heart infusion medium supplemented with Fildes Enrichment, and then cultured overnight. The culture was diluted with the Hemophilus susceptibility test medium or the brain heart infusion medium supplemented with Fildes Enrichment to prepare a bacterial suspension for inoculation. The bacterial suspension for inoculation (0.05 mL each) was intratracheobronchially administered to mice (ICR, male, 4 weeks old) for infection. The inoculated bacterial amount was 2.25×10^6 CFU/mouse, or 9.00×10^5 CFU/mouse. From the next day of the inoculation, the compound represented by the formula [1] of Example 1 (100 and 200 mg/kg) or a medium (mixture of equivalent volumes of a 0.1 mol/L lactobionic acid solution and a 0.5 w/v % sodium hydrogencarbonate solution) was orally administered to the mice once a day for 2 days. The numbers of living cells in the lung observed 3 days after the inoculation are shown in FIG. 1 (each group consisted of 6 mice, average±standard error).
The notes for FIG. 1 are as follows. As for significant difference relative to the medium administration group, significance was determined by the Steel test, and the symbols * and ** mean p<0.05 and p<0.01, respectively. The MIC value of the compound of Example 1 represented by the formula [I] was 4 μg/mL, and the MIC value of the compound of Reference Example 4 represented by the formula [3] was 4 μg/mL.
In the following descriptions, the numbers of living cells in the lung as the test results may be represented in terms of common logarithm of number of live cells in the lung (CFU/lung) (common logarithm is henceforth indicated as log).

[3] = tested on: Streptococcus pneumoniae 1101 strain; assay: Therapeutic effect test in erythromycin resistant pneumococcus (harboring erm(B) gene)-infected animals; assay type: in vivo, mice; settings: for number of living cells in the lung: CBA/JN mice, 3 days after inoculation, average±standard error
Description: As a bacterium, the Streptococcus pneumoniae 1101 strain (clinically isolated strain) was used. A frozen stock of the strain used was added to the Todd Hewitt broth supplemented with 30 vol % inactivated horse serum, and the bacterium was cultured until the turbidity (OD600) became about 0.3. The culture medium was diluted with the Todd Hewitt broth supplemented with 30 vol % inactivated horse serum to prepare a bacterial suspension for inoculation. The bacterial suspension for inoculation (0.05 mL each) was intranasally administered to mice (CBA/JN, male, 5 weeks old) for infection. The inoculated bacterial amount was 7.50×10^4 CFU/mouse, or 1.65×10^5 CFU/mouse. From the next day of the inoculation, the compound of Example 1 represented by the formula [1] […] The numbers of live cells in the lung observed 3 days after the inoculation are shown in FIG. 2 (each group consisted of 5 or 6 mice, average±standard error).
(§2) The notes for FIG. 2 are as follows. As for significant difference relative to the medium administration group, significance was determined by the Steel test, and the symbols * and ** mean p<0.05 and p<0.01, respectively.

[4] = tested on: Streptococcus pneumoniae 1028 strain; assay: MIC against the strain of Test Example 5; assay type: cell-based; settings: notes for FIG. 3, mef(A) strain
Description: (§3) The notes for FIG. 3 are as follows. As for significant difference relative to the medium administration group, significance was determined by the Steel test, and the symbols * and ** mean p<0.05 and p<0.01, respectively.

[5] = tested on: Streptococcus pneumoniae MSC08607; assay: In vitro antibacterial activity, microbroth dilution (CLSI method); assay type: cell-based; settings: bacterium symbol F
Description: as §1

[6] = tested on: Streptococcus pyogenes MSC07811; assay: as above; assay type: cell-based; settings: bacterium symbol K
Description: as §1

[7] = tested on: Streptococcus pneumoniae MSC07365; assay: as above; assay type: cell-based; settings: bacterium symbol H
Description: as §1

[8] = tested on: Streptococcus pyogenes MSC07812; assay: as above; assay type: cell-based; settings: bacterium symbol J
Description: as §1

[9] = tested on: Haemophilus influenzae NSC17960; assay: as above; assay type: cell-based; settings: bacterium symbol C
Description: as §1

[10] = tested on: Streptococcus pneumoniae MSC07465; assay: as above; assay type: cell-based; settings: bacterium symbol E
Description: as §1

[11] = tested on: Streptococcus aureus ATCC29213; assay: as above; assay type: cell-based; settings: bacterium symbol L
Description: as §1

[12] = tested on: Streptococcus pyogenes ATCC12344; assay: as above; assay type: cell-based; settings: bacterium symbol I
Description: as §1

[13] = tested on: Streptococcus pneumoniae ATCC49619; assay: as above; assay type: cell-based; settings: bacterium symbol D
Description: as §1

[14] = tested on: Haemophilus influenzae MSC17946; assay: as above; assay type: cell-based; settings: bacterium symbol B
Description: as §1

[15] = tested on: Streptococcus pneumoniae ATCC700904; assay: as above; assay type: cell-based; settings: bacterium symbol G
Description: as §1

[16] = tested on: Haemophilus influenzae ATCC43095; assay: as above; assay type: cell-based; settings: for MIC: Haemophilus influenzae, ATCC43095
Description: as §1

[17] = tested on: Streptococcus pneumoniae 1028 strain; assay: Therapeutic effect test in erythromycin resistant pneumococcus (harboring mef(A) gene)-infected animals; assay type: in vivo, mice; settings: for number of living cells in the lung: CBA/JN mice, 3 days after inoculation
Description: As a bacterium, the Streptococcus pneumoniae 1028 strain (clinically isolated strain) was used. A frozen stock of the strain used was added to the Todd Hewitt broth supplemented with 30 vol % inactivated horse serum, and the bacterium was cultured until the turbidity (OD600) became about 0.3. The culture was diluted with the Todd Hewitt broth supplemented with 30 vol % inactivated horse serum to prepare a bacterial suspension for inoculation. The bacterial suspension for inoculation (0.05 mL each) was intranasally administered to mice (CBA/JN, male, 5 weeks old) for infection. The inoculated bacterial amount was 3.45×10^4 CFU/mouse, or 3.90×10^4 CFU/mouse. From the next day of the inoculation, the compound of Example 1 represented by the formula [1] (3, 10, 30 and 100 mg/kg) or a medium (mixture of equivalent volumes of a 0.1 mol/L lactobionic acid solution and a 0.5 w/v % sodium hydrogencarbonate solution) was orally administered to the mice once a day for 2 days. The numbers of living cells in the lung observed 3 days after the inoculation are shown in FIG. 3 (each group consisted of 5 or 6 mice, average±standard error).
as §3

[18] = tested on: Streptococcus pneumoniae 1101 strain; assay: MIC against the strain of Test Example 4; assay type: cell-based; settings: notes for FIG. 2, erm(B) strain
Description: as §2

[19] = 100 mg/kg orally once a day for 2 days
[20] = 200 mg/kg orally once a day for 2 days
[21] = 30 mg/kg orally once a day for 2 days
[22] = 10 mg/kg orally once a day for 2 days, average±standard error
[23] = 30 mg/kg orally once a day for 2 days, 1.30 = lower than detection limit
[24] = 100 mg/kg orally once a day for 2 days, 1.30 = lower than detection limit

SMILES: CCNC(=O)CN1C(=O)O[C@]2(C)[C@@H](CC)OC(=O)[C@H](C)[C@@H](O[C@H]3C[C@@](C)(OC)[C@@](O)(CN(C)CCN(C(C)C)C(C)C)[C@H](C)O3)[C@H](C)[C@@H](O[C@@H]3O[C@H](C)C[C@H](N(C)C)[C@H]3O)[C@@](C)(OC)C[C@@H](C)C(=O)[C@H](C)[C@@H]12 [Example 1]
- MIC50 [1]: 4 µg/mL (≈ 3.89 µM)
- MIC90 [1]: 8 µg/mL (≈ 7.78 µM)
- number of living cells in the lung [2, 19]: 3.54±0.49 log (CFU/lung)
- number of living cells in the lung [2, 20]: 2.83±0.53 log (CFU/lung)
- therapeutic effectiveness relative to the compound of Reference Example 4 ([2]; overall conclusion of Test Example 3): comparable
- number of living cells in the lung [3, 21]: 4.14±0.19 log (CFU/lung)
- number of living cells in the lung [3, 19]: 2.28±0.24 log (CFU/lung)
- therapeutic effectiveness relative to the compound of Reference Example 4 ([3]; overall conclusion of Test Example 4): superior
- MIC value [4]: 0.12 µg/mL (≈ 0.117 µM)
- MIC (minimum inhibitory concentration) [5]: 0.06 µg/mL (≈ 0.0583 µM)
- MIC (minimum inhibitory concentration) [6]: 2 µg/mL (≈ 1.94 µM)
- MIC (minimum inhibitory concentration) [7]: 4 µg/mL (≈ 3.89 µM)
- MIC (minimum inhibitory concentration) [8]: 0.12 µg/mL (≈ 0.117 µM)
- MIC (minimum inhibitory concentration) [9]: 4 µg/mL (≈ 3.89 µM)
- MIC (minimum inhibitory concentration) [10]: 0.03 µg/mL (≈ 0.0292 µM)
- MIC (minimum inhibitory concentration) [11]: 1 µg/mL (≈ 0.972 µM)
- MIC (minimum inhibitory concentration) [12]: 0.06 µg/mL (≈ 0.0583 µM)
- MIC (minimum inhibitory concentration) [13]: 0.06 µg/mL (≈ 0.0583 µM)
- MIC (minimum inhibitory concentration) [14]: 8 µg/mL (≈ 7.78 µM)
- MIC (minimum inhibitory concentration) [15]: 0.12 µg/mL (≈ 0.117 µM)
- MIC (minimum inhibitory concentration) ([16]; bacterium symbol A): 4 µg/mL (≈ 3.89 µM)
- MIC value ([16]; notes for FIG. 1, strain of Test Example 3): 4 µg/mL (≈ 3.89 µM)
- number of living cells in the lung ([17]; 3 mg/kg orally once a day for 2 days, average±standard error): 6.45±0.18 log (CFU/lung)
- number of living cells in the lung [17, 22]: 1.30±0.00 log (CFU/lung)
- number of living cells in the lung [17, 23]: 1.30±0.00 log (CFU/lung)
- number of living cells in the lung [17, 24]: 1.30±0.00 log (CFU/lung)
- therapeutic effectiveness relative to the compound of Reference Example 4 ([17]; overall conclusion of Test Example 5): superior
- MIC value [18]: 0.25 µg/mL (≈ 0.243 µM)

SMILES: CC[C@H]1OC(=O)[C@H](C)[C@@H](O[C@H]2C[C@@](C)(OC)[C@@](O)(CN(C)CCN(CC)CC)[C@H](C)O2)[C@H](C)[C@@H](O[C@@H]2O[C@H](C)C[C@H](N(C)C)[C@H]2O)[C@@](C)(OC)C[C@@H](C)C(=O)[C@H](C)[C@H]2N(CCCS(C)(=O)=O)C(=O)O[C@]12C [Reference Example 4, reference compound]
- MIC50 [1]: 4 µg/mL (≈ 3.86 µM)
- MIC90 [1]: 8 µg/mL (≈ 7.73 µM)
- number of living cells in the lung [2, 19]: 4.37±0.27 log (CFU/lung)
- number of living cells in the lung [2, 20]: 2.53±0.23 log (CFU/lung)
- number of living cells in the lung ([3]; 10 mg/kg orally once a day for 2 days): 5.86±0.12 log (CFU/lung)
- number of living cells in the lung [3, 21]: 5.22±0.16 log (CFU/lung)
- number of living cells in the lung [3, 19]: 3.65±0.36 log (CFU/lung)
- MIC ([4]; Streptococcus pneumoniae, 1028STRAIN): 0.03 µg/mL (≈ 0.029 µM)
- MIC ([5]; Streptococcus pneumoniae, MSC08607, read-out: MIC (minimum inhibitory concentration)): 0.06 µg/mL (≈ 0.0579 µM)
- MIC ([6]; Streptococcus pyogenes, MSC07811, read-out: MIC (minimum inhibitory concentration)): 4 µg/mL (≈ 3.86 µM)
- MIC ([7]; Streptococcus pneumoniae, MSC07365, read-out: MIC (minimum inhibitory concentration)): 4 µg/mL (≈ 3.86 µM)
- MIC ([8]; Streptococcus pyogenes, MSC07812, read-out: MIC (minimum inhibitory concentration)): 0.25 µg/mL (≈ 0.241 µM)
- MIC ([9]; Haemophilus influenzae, NSC17960, read-out: MIC (minimum inhibitory concentration)): 4 µg/mL (≈ 3.86 µM)
- MIC ([10]; Streptococcus pneumoniae, MSC07465, read-out: MIC (minimum inhibitory concentration)): 0.03 µg/mL (≈ 0.029 µM)
- MIC ([11]; Streptococcus, ATCC29213, read-out: MIC (minimum inhibitory concentration)): 0.5 µg/mL (≈ 0.483 µM)
- MIC ([12]; Streptococcus pyogenes, ATCC12344, read-out: MIC (minimum inhibitory concentration)): 0.06 µg/mL (≈ 0.0579 µM)
- MIC ([13]; Streptococcus pneumoniae, ATCC49619, read-out: MIC (minimum inhibitory concentration)): 0.03 µg/mL (≈ 0.029 µM)
- MIC ([14]; Haemophilus influenzae, MSC17946, read-out: MIC (minimum inhibitory concentration)): 8 µg/mL (≈ 7.73 µM)
- MIC ([15]; Streptococcus pneumoniae, ATCC700904, read-out: MIC (minimum inhibitory concentration)): 0.12 µg/mL (≈ 0.116 µM)
- MIC ([16]; bacterium symbol A, read-out: MIC (minimum inhibitory concentration)): 4 µg/mL (≈ 3.86 µM)
- MIC ([16]; notes for FIG. 1, strain of Test Example 3, read-out: MIC value): 4 µg/mL (≈ 3.86 µM)
- number of living cells in the lung [17, 22]: 5.67±0.38 log (CFU/lung)
- number of living cells in the lung [17, 23]: 1.30±0.00 log (CFU/lung)
- number of living cells in the lung [17, 24]: 1.30±0.00 log (CFU/lung)
- MIC ([18]; Streptococcus pneumoniae, 1101STRAIN): 0.12 µg/mL (≈ 0.116 µM)
